Patent publication US9328099B2, “Cyanomethylpyrazole carboxamides as janus kinase inhibitors” (Merck Sharp & Dohme Corp., priority 2011, dated 2016)

Tests used:
JAK2 = JAK2 (Homo sapiens (Human), UniProt O60674); assay: Jak Biochemical HTRF Assay, JAK2; conditions: HTRF biochemical assay, GST-tagged catalytic domain; top concentration tested […]
Source text: (§1) Jak Biochemical HTRF Assay Protocol
(§2) Subsequent reagent additions employed an Agilent Bravo.

JAK1 = JAK1 (Homo sapiens (Human), UniProt P23458); assay: Jak Biochemical HTRF Assay, JAK1; conditions: HTRF biochemical assay, GST-tagged catalytic domain; top concentration tested […]; read-out: JAK1 IC50
Source text: as §1, §2

Chain of JAK2 (O60674 849-1124): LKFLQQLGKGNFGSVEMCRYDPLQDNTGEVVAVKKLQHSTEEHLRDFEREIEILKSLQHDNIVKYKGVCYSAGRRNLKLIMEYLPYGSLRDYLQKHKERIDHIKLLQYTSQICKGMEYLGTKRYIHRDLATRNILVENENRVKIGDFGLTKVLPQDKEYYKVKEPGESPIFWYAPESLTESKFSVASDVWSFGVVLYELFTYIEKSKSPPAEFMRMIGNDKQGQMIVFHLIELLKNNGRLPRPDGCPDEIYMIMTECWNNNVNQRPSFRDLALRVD
Chain of JAK1 (P23458 875-1153): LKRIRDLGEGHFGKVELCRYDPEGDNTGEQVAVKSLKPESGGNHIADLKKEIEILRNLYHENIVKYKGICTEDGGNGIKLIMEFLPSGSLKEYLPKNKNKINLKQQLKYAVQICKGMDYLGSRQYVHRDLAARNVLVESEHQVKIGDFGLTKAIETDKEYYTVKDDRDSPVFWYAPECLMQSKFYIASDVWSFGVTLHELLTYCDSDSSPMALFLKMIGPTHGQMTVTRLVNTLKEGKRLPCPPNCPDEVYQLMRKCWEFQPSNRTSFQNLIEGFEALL

N#CCC1(n2cc(C(N)=O)c(Nc3ccccc3)n2)CCN(Cc2c(F)ccc(F)c2F)CC1 [Example 21-26, 1-[4-(cyanomethyl)-1-(2,3,6-trifluorobenzyl)piperidin-4-yl]-3-(phenylamino)-1H-pyrazole-4-carboxamide]
IC50 (JAK2): 11 nM | IC50 (JAK1): 0.7 nM

CC(C)Oc1ccc(CN2CCC(CC#N)(n3cc(C(N)=O)c(Nc4ccccc4)n3)CC2)cc1 [Example 21-27, 1-{4-(cyanomethyl)-1-[4-(1-methylethoxy)benzyl]piperidin-4-yl}-3-(phenylamino)-1H-pyrazole-4-carboxamide]
IC50 (JAK2): 809 nM | IC50 (JAK1): 36 nM

Cc1ccc(CN2CCC(CC#N)(n3cc(C(N)=O)c(Nc4ccccc4)n3)CC2)cc1C [Example 21-28, 1-[4-(cyanomethyl)-1-(3,4-dimethylbenzyl)piperidin-4-yl]-3-(phenylamino)-1H-pyrazole-4-carboxamide]
IC50 (JAK2): 453 nM | IC50 (JAK1): 39 nM

COC(=O)c1ccccc1CN1CCC(CC#N)(n2cc(C(N)=O)c(Nc3ccccc3)n2)CC1 [Example 21-29, methyl 2-({4-[4-carbamoyl-3-(phenylamino)-1H-pyrazol-1-yl]-4-(cyanomethyl)piperidin-1-yl}methyl)benzoate]
IC50 (JAK2): 400 nM | IC50 (JAK1): 21 nM

CCn1ccnc1CN1CCC(CC#N)(n2cc(C(N)=O)c(Nc3ccnc(F)c3)n2)CC1 [Example 22-1, 1-(4-(Cyanomethyl)-1-((1-ethyl-1H-imidazol-2-yl)methyl)piperidin-4-yl)-3-((2-fluoropyridin-4-yl)amino)-1H-pyrazole-4-carboxamide]
IC50 (JAK2): 447 nM | IC50 (JAK1): 30 nM

N#CCC1(n2cc(C(N)=O)c(Nc3ccnc(F)c3)n2)CCN(Cc2cccnc2)CC1 [Example 22-2, 1-[4-(cyanomethyl)-1-(pyridin-3-ylmethyl)piperidin-4-yl]-3-[(2-fluoropyridin-4-yl)amino]-1H-pyrazole-4-carboxamide]
IC50 (JAK2): 5 nM | IC50 (JAK1): 0.2 nM

N#CCC1(n2cc(C(N)=O)c(Nc3ccnc(F)c3)n2)CCN(CC2CCCCC2)CC1 [Example 22-3, 1-[4-(cyanomethyl)-1-(cyclohexylmethyl)piperidin-4-yl]-3-[(2-fluoropyridin-4-yl)amino]-1H-pyrazole-4-carboxamide]
IC50 (JAK2): 57 nM | IC50 (JAK1): 1 nM

Cc1c[nH]c(CN2CCC(CC#N)(n3cc(C(N)=O)c(Nc4ccnc(F)c4)n3)CC2)n1 [Example 22-4, 1-{4-(cyanomethyl)-1-[(4-methyl-1H-imidazol-2-yl)methyl]piperidin-4-yl}-3-[(2-fluoropyridin-4-yl)amino]-1H-pyrazole-4-carboxamide]
IC50 (JAK2): 1180 nM | IC50 (JAK1): 74 nM

N#CCC1(n2cc(C(N)=O)c(Nc3ccnc(F)c3)n2)CCN(Cc2cn[nH]c2)CC1 [Example 22-5, 1-[4-(cyanomethyl)-1-(1H-pyrazol-4-ylmethyl)piperidin-4-yl]-3-[(2-fluoropyridin-4-yl)amino]-1H-pyrazole-4-carboxamide]
IC50 (JAK2): 70 nM | IC50 (JAK1): 6 nM

N#CCC1(n2cc(C(N)=O)c(Nc3ccc(F)cc3)n2)CCN(CC2CCCCC2)CC1 [Example 22-6, 1-[4-(cyanomethyl)-1-(cyclohexylmethyl)piperidin-4-yl]-3-[(4-fluorophenyl)amino]-1H-pyrazole-4-carboxamide]
IC50 (JAK2): 211 nM | IC50 (JAK1): 6 nM

N#CCC1(n2cc(C(N)=O)c(Nc3ccc(F)cc3)n2)CCN(Cc2ccccc2)CC1 [Example 22-7, 1-[1-benzyl-4-(cyanomethyl)piperidin-4-yl]-3-[(4-fluorophenyl)amino]-1H-pyrazole-4-carboxamide]
IC50 (JAK2): 13 nM | IC50 (JAK1): 0.3 nM

N#CCC1(n2cc(C(N)=O)c(Nc3ccnc(F)c3)n2)CCN(Cc2ccccc2)CC1 [Example 22-8, 1-[1-benzyl-4-(cyanomethyl)piperidin-4-yl]-3-[(2-fluoropyridin-4-yl)amino]-1H-pyrazole-4-carboxamide]
IC50 (JAK2): 6 nM | IC50 (JAK1): 0.1 nM

N#CCC1(n2cc(C(N)=O)c(Nc3ccnc(F)c3)n2)CCN(Cc2ccccc2F)CC1 [Example 22-9, 1-[4-(cyanomethyl)-1-(2-fluorobenzyl)piperidin-4-yl]-3-[(2-fluoropyridin-4-yl)amino]-1H-pyrazole-4-carboxamide]
IC50 (JAK2): 2 nM | IC50 (JAK1): 0.06 nM

N#CCC1(n2cc(C(N)=O)c(Nc3ccnc(F)c3)n2)CCN(Cc2cccc(F)c2)CC1 [Example 22-10, 1-[4-(cyanomethyl)-1-(3-fluorobenzyl)piperidin-4-yl]-3-[(2-fluoropyridin-4-yl)amino]-1H-pyrazole-4-carboxamide]
IC50 (JAK2): 3 nM | IC50 (JAK1): 0.07 nM

N#CCC1(n2cc(C(N)=O)c(Nc3ccnc(F)c3)n2)CCN(Cc2ccc(F)cc2)CC1 [Example 22-11, 1-[4-(cyanomethyl)-1-(4-fluorobenzyl)piperidin-4-yl]-3-[(2-fluoropyridin-4-yl)amino]-1H-pyrazole-4-carboxamide]
IC50 (JAK2): 4 nM | IC50 (JAK1): 0.1 nM

N#CCC1(n2cc(C(N)=O)c(Nc3ccnc(F)c3)n2)CCN(Cc2cn3ccccc3n2)CC1 [Example 22-12, 1-[4-(cyanomethyl)-1-(imidazo[1,2-a]pyridin-2-ylmethyl)piperidin-4-yl]-3-[(2-fluoropyridin-4-yl)amino]-1H-pyrazole-4-carboxamide]
IC50 (JAK2): > 1500 nM | IC50 (JAK1): 124 nM

N#CCC1(n2cc(C(N)=O)c(Nc3ccnc(F)c3)n2)CCN(Cc2ccn[nH]2)CC1 [Example 22-13, 1-[4-(cyanomethyl)-1-(1H-pyrazol-5-ylmethyl)piperidin-4-yl]-3-[(2-fluoropyridin-4-yl)amino]-1H-pyrazole-4-carboxamide]
IC50 (JAK2): 39 nM | IC50 (JAK1): 3 nM

N#CCC1(n2cc(C(N)=O)c(Nc3ccnc(F)c3)n2)CCN(Cc2cnccn2)CC1 [Example 22-14, 1-[4-(cyanomethyl)-1-(pyrazin-2-ylmethyl)piperidin-4-yl]-3-[(2-fluoropyridin-4-yl)amino]-1H-pyrazole-4-carboxamide]
IC50 (JAK2): 28 nM | IC50 (JAK1): 0.6 nM

Cc1ncc(CN2CCC(CC#N)(n3cc(C(N)=O)c(Nc4ccnc(F)c4)n3)CC2)s1 [Example 22-15, 1-{4-(cyanomethyl)-1-[(2-methyl-1,3-thiazol-5-yl)methyl]piperidin-4-yl}-3-[(2-fluoropyridin-4-yl)amino]-1H-pyrazole-4-carboxamide]
IC50 (JAK2): 18 nM | IC50 (JAK1): 1 nM

CC1(C)CC(CN2CCC(CC#N)(n3cc(C(N)=O)c(Nc4ccnc(F)c4)n3)CC2)CCO1 (stereo not drawn) [Example 22-16, 1-{4-(cyanomethyl)-1-[(2,2-dimethyltetrahydro-2H-pyran-4-yl)methyl]piperidin-4-yl}-3-[(2-fluoropyridin-4-yl)amino]-1H-pyrazole-4-carboxamide]
IC50 (JAK2): 122 nM | IC50 (JAK1): 5 nM

N#CCC1(n2cc(C(N)=O)c(Nc3ccnc(F)c3)n2)CCN(Cc2cnn3ccccc23)CC1 [Example 22-17]
IC50 (JAK2): 503 nM | IC50 (JAK1): 17 nM

N#CCC1(n2cc(C(N)=O)c(Nc3ccnc(F)c3)n2)CCN(Cc2ccnc3[nH]ccc23)CC1 [Example 22-18, 1-[4-(cyanomethyl)-1-(1H-pyrrolo[2,3-b]pyridin-4-ylmethyl)piperidin-4-yl]-3-[(2-fluoropyridin-4-yl)amino]-1H-pyrazole-4-carboxamide]
IC50 (JAK2): 72 nM | IC50 (JAK1): 2 nM

N#CCC1(n2cc(C(N)=O)c(Nc3ccnc(F)c3)n2)CCN(Cc2ccco2)CC1 [Example 22-19, 1-[4-(cyanomethyl)-1-(furan-2-ylmethyl)piperidin-4-yl]-3-[(2-fluoropyridin-4-yl)amino]-1H-pyrazole-4-carboxamide]
IC50 (JAK2): 25 nM | IC50 (JAK1): 0.7 nM

N#CCC1(n2cc(C(N)=O)c(Nc3ccnc(F)c3)n2)CCN(Cc2ccc3[nH]ccc3c2)CC1 [Example 22-20, 1-[4-(cyanomethyl)-1-(1H-indol-5-ylmethyl)piperidin-4-yl]-3-[(2-fluoropyridin-4-yl)amino]-1H-pyrazole-4-carboxamide]
IC50 (JAK2): 31 nM | IC50 (JAK1): 2 nM

N#CCC1(n2cc(C(N)=O)c(Nc3ccnc(F)c3)n2)CCN(Cc2cccc3cc[nH]c23)CC1 [Example 22-21, 1-[4-(cyanomethyl)-1-(1H-indol-7-ylmethyl)piperidin-4-yl]-3-[(2-fluoropyridin-4-yl)amino]-1H-pyrazole-4-carboxamide]
IC50 (JAK2): 41 nM | IC50 (JAK1): 0.7 nM

Cc1cnc(F)c(CN2CCC(CC#N)(n3cc(C(N)=O)c(Nc4ccnc(F)c4)n3)CC2)c1 [Example 22-22, 1-{4-(cyanomethyl)-1-[(2-fluoro-5-methylpyridin-3-yl)methyl]piperidin-4-yl}-3-[(2-fluoropyridin-4-yl)amino]-1H-pyrazole-4-carboxamide]
IC50 (JAK2): 13 nM | IC50 (JAK1): 0.4 nM

N#CCC1(n2cc(C(N)=O)c(Nc3ccnc(F)c3)n2)CCN(Cc2cccnc2F)CC1 [Example 22-23, 1-{4-(cyanomethyl)-1-[(2-fluoropyridin-3-yl)methyl]piperidin-4-yl}-3-[(2-fluoropyridin-4-yl)amino]-1H-pyrazole-4-carboxamide]
IC50 (JAK2): 6 nM | IC50 (JAK1): 0.1 nM

CC(C)(O)C1CC(CN2CCC(CC#N)(n3cc(C(N)=O)c(Nc4ccnc(F)c4)n3)CC2)C1 (stereo not drawn) [Example 22-24, 1-[4-(cyanomethyl)-1-{[3-(1-hydroxy-1-methylethyl)cyclobutyl]methyl}piperidin-4-yl]-3-[(2-fluoropyridin-4-yl)amino]-1H-pyrazole-4-carboxamide]
IC50 (JAK2): > 1500 nM | IC50 (JAK1): 100 nM

N#CCC1(n2cc(C(N)=O)c(Nc3ccnc(F)c3)n2)CCN(Cc2cscn2)CC1 [Example 22-25, 1-[4-(cyanomethyl)-1-(1,3-thiazol-4-ylmethyl)piperidin-4-yl]-3-[(2-fluoropyridin-4-yl)amino]-1H-pyrazole-4-carboxamide]
IC50 (JAK2): 208 nM | IC50 (JAK1): 6 nM

N#CCC1(n2cc(C(N)=O)c(Nc3ccnc(F)c3)n2)CCN(Cc2cocn2)CC1 [Example 22-26, 1-[4-(cyanomethyl)-1-(1,3-oxazol-4-ylmethyl)piperidin-4-yl]-3-[(2-fluoropyridin-4-yl)amino]-1H-pyrazole-4-carboxamide]
IC50 (JAK2): 117 nM | IC50 (JAK1): 6 nM
